Reference: patent US8618082B2, “Lupeol anti-tumor agent and uses thereof” (Wisconsin Alumni Research Foundation, priority 2004, dated 2013)

Tests used:
[1] = tested on: normal human prostate epithelial cells (PrEC); test: Viability of normal human prostate epithelial cells, MTT assay; format: cell-based; conditions: 48 hours
Description: FIG. 9 depicts effect of Lupeol on viability of normal human prostate epithelial cells (PrEC). Cells were treated with specified concentrations of Lupeol for 48 h, and cell viability was determined by MTT (3-[4,5-dimethylthiazol-2-yl]-2,5-diphenyl tetrazoliumbromide) assay. The values are represented as the percent viable cells where vehicle-treated cells were regarded as 100% viable. Data represents mean value of percent viable cells±S.E of three independent experiments.

[2] = tested on: mouse ear; conditions: Nikiema et al., 2001; cited from earlier work
[3] = tested on: catalytic (p110) and regulatory (p85) subunit of PI3K; test: TPA-induced epidermal PI3K expression (western blot); format: in vivo, mouse
Description: (§1) FIG. 5. Inhibitory effect of Lupeol on TPA-induced activation of PI3K and phosphorylation of Akt in CD-1 mice: At different times after treatment, the animals were sacrificed, epidermal protein lysate was prepared, and PI3K and phosphorylated (Thr^308) Akt and total Akt protein expression were determined. The immunoblots shown here are representative of three independent experiments with similar results. The values above each lane indicate relative density of the band normalized to β-actin.
The animals were shaved on the dorsal side of the skin, divided into four groups and treated topically on the shaved area with either 0.4 ml vehicle (acetone), or TPA (3.2 nmol/0.4 ml acetone/animal, v/v), or Lupeol (1 or 2 mg/0.2 ml acetone/animal, w/v) followed 30 min later with TPA (3.2 nmol/0.2 ml acetone/animal). Animals were sacrificed at different times point i.e. 6, 12, 24 and 48 h post TPA treatment. The epidermis was separated from the whole skin and homogenized in 0.1 M Tris-HCl buffer (pH 7.2) using a Polytron tissue homogenizer (Brinkmann Instruments, Westbury, N.Y., USA) at 100,000×g supernatant, and microsomal fractions were prepared as described earlier (Katiyar and Mukhtar, 1997). The sample of 6 h treatment group was used to assess the ODC activity as this time point has previously been shown for optimal induction of the enzyme (Katiyar er al., 1996).
Epidermis from the whole skin was separated as described earlier (Katiyar et al., 1999) and was homogenized in ice-cold lysis buffer [50 mM Tris-HCl, 150 mM NaCl, 1 mM EGTA, 1 mM EDTA, 20 mM NaF, 100 mM Na3VO4, 0.5% NP-40, 1% Triton X-100, 1 mM PMSF (pH 7.4)] with freshly added protease inhibitor cocktail, Protease Inhibitor Cocktail Set III (Calbiochem, La Jolla, Calif., USA). The homogenate was then centrifuged at 14,000×g for 25 minutes at 4° C. and the supernatant (total cell lysate) was collected, aliquoted and stored at −80° C. For the preparation of nuclear lysate, 0.2 g of the epidermis was homogenized in 1 ml of ice-cold phosphate-buffered saline (pH 7.6) and centrifuged at 12,000×g for 5 min at 4° C. […] The protein content in the lysates was measured by DC BioRad assay (BioRad Laboratories, Hercules, Calif.) as per the manufacturer's protocol.
(§2) For western blot analysis, 40 μg of the protein was resolved over 8-12% polyacrylamide gels and transferred to a nitrocellulose membrane. […] This was followed by incubation with anti-mouse or anti-rabbit secondary antibody horse-radish peroxidase (Amersham Life Sciences, Inc., USA) for 1 h and then washed several times and detected by chemiluminescence ECL kit, (Amersham Life Sciences, Inc., USA) and autoradiography using XAR-5 film obtained from Eastman Kodak Co. (Rochester, N.Y., USA). […]

[4] = tested on: Akt; test: TPA-induced phosphorylation of Akt at Thr308 (western blot); format: in vivo, mouse
Description: as §1
The animals were shaved on the dorsal side of the skin, divided into four groups and treated topically on the shaved area with either 0.4 ml vehicle (acetone), or TPA (3.2 nmol/0.4 ml acetone/animal, v/v), or Lupeol (1 or 2 mg/0.2 ml acetone/animal, w/v) followed 30 min later with TPA (3.2 nmol/0.2 ml acetone/animal). Animals were sacrificed at different times point i.e. 6, 12, 24 and 48 h post TPA treatment. […]
Epidermis from the whole skin was separated as described earlier (Katiyar et al., 1999) and was homogenized in ice-cold lysis buffer [50 mM Tris-HCl, 150 mM NaCl, 1 mM EGTA, 1 mM EDTA, 20 mM NaF, 100 mM Na3VO4, 0.5% NP-40, 1% Triton X-100, 1 mM PMSF (pH 7.4)] with freshly added protease inhibitor cocktail, Protease Inhibitor Cocktail Set III (Calbiochem, La Jolla, Calif., USA). […] The protein content in the lysates was measured by DC BioRad assay (BioRad Laboratories, Hercules, Calif.) as per the manufacturer's protocol.
as §2

[5] = tested on: CD-1 mouse; test: Preliminary dose study, primary biomarkers of tumor promotion; format: in vivo; conditions: 0.25 and 0.5 mg of Lupeol per animal, topical; data not shown
Description: Studies from the inventors' laboratory and by other have shown that TPA application to mouse skin results in cutaneous edema (Katiyar et at, 1996; Liang et at, 2002). In the present study, the inventors evaluated the protective effects of topical application of Lupeol in TPA-mediated cutaneous edema in CD-1 mouse. The inventors tested four doses 0.25, 0.5, 1 and 2 mg of Lupeol per animal in the inventors' preliminary studies. […] The CD-1 mice were topically treated with Lupeol (1 and 2 mg/mouse) and 30 min later were topically treated with TPA (3.2 nmole/mouse). […] At least four determinations were made at different dorsal skin sites per mouse in each group. The data represents the mean±SE of eight mice (*p<0.01 vs TPA).

[6] = tested on: Fas receptor protein; test: Fas receptor expression in LNCaP cells treated with Lupeol plus anti-Fas mAb (western blot); format: cell-based, human; conditions: anti-Fas mAb pretreated LNCaP cells treated with Lupeol
Description: FIG. 16 depicts cells that were treated with vehicle (DMSO+alcohol) only or specified concentrations of Lupeol alone, anti-Fas mAb or with combination (Lupeol+anti-Fas mAb) for 48 h, harvested and total cell lysates were prepared. The expression of Fas receptor protein in total cell lysate was determined by western blot analysis. Equal loading was confirmed by stripping immunoblots and reprobing them for β-actin. The immunoblots shown here are representative of three independent experiments with similar results.

## C=C(C)[C@@H]1CC[C@]2(C)CC[C@]3(C)[C@H](CC[C@@H]4[C@@]5(C)CC[C@H](O)C(C)(C)[C@@H]5CC[C@]43C)[C@@H]12 [Lupeol, Lup-20(29)-en-3β-ol]
[1]; 60 μM Lupeol
  cell death of normal prostate epithelial cells: 30%
[1]; Lupeol up to 50 μM
  cell death of normal prostate epithelial cells: did not exhibit any significant cell death
[2]
  protection against croton oil induced edema in mouse ear: more efficacy than indomethacin
[3]; 2 mg Lupeol prior to TPA
  expression of p110 and p85: recovery of the expression of both p110 and p85 almost to their basal levels
[3]; topical Lupeol 30 min prior to TPA
  TPA-induced increased expression of catalytic and regulatory subunits of PI3K: significant inhibition
[4]; pre-application of Lupeol prior to TPA
  TPA-induced phosphorylation of Akt at Thr308: dose dependent inhibition
[4]; vs vehicle treated control
  total epidermal Akt content: no change was observed
[5]
  effect on primary biomarkers of tumor promotion: did not exhibit any significant effect
[6]
  Fas protein expression: highly increased
